{"source": "patent US4904593A", "about": "(priority 1986, dated 1990)", "key": {"purified esterase [1]": {"test_system": "purified esterase", "assay": "Hydrolysis activity of the esterase to substrates, pH-stat (Example 6, Table 1)", "assay_type": "biochemical, Bacillus sp. DC-1", "details": "100 mM Tris-HCl pH 9.0, emulsified with 0.2% polyvinyl alcohol, ethyl butyrate = 100", "experimental": "(§1) Also, the hydrolysis activities of the present esterase to choline ester, cholesterol ester, and thiol ester were determined.\n(§2) In Table 1, the hydrolysis activity is expressed in relative activity (%) based on the hydrolysis activity of the present esterase to ethyl butyrate taken as 100. Each substrate was used after it was emulsified with 0.2% polyvinyl alcohol. In Table 2, hydrolysis activities to choline ester and cholesterol ester were observed by the use of the Cholinesterase B-test (Wako) and Free-Cholesterol B-test (Wako), respectively, and hydrolysis activity to thiol ester was based on increase in absorbance at 412 nm with a spectrophotometer in which glutathione, a standard substance, and 5,5'-dithiobis(2-nitrobenzoic acid) (DTNB) were employed. The activity is expressed in mole numbers of choline, cholesterol, and CoA to be liberated per minute."}, "purified esterase [2]": {"test_system": "purified esterase", "assay": "Hydrolysis activity to thiol ester, DTNB absorbance at 412 nm (Table 2)", "assay_type": "biochemical, Bacillus sp. DC-1", "details": "for Activity: substrate 50 μM, CoA liberated per minute; for Substrate specificity (esterase active or not): summary of properties, thiol esters", "experimental": "as §1, §2"}, "purified esterase [3]": {"test_system": "purified esterase", "assay": "Hydrolysis activity to cholesterol ester, Free-Cholesterol B-test (Table 2)", "assay_type": "biochemical, Bacillus sp. DC-1", "details": "substrate 1,300 μM; cholesterol liberated per minute", "experimental": "as §1, §2"}, "purified esterase [4]": {"test_system": "purified esterase", "assay_type": "biochemical, Bacillus sp. DC-1"}, "[5]": {"test_system": "esterase from Pseudomonas aeruginosa", "details": "cited from earlier work"}}, "note": "Like-named read-outs stand apart in the source and are kept apart here.", "data": [{"compound": "CCCCCCCCCCCCCCCC(=O)OCC(CO)OC(=O)CCCCCCCCCCCCCCC", "note": "(centres unmarked) [1,2-dipalmitoyl glycerol]", "values": [{"measurement": "Relative activity (%)", "setting": "purified esterase [1]; substrate 5 mM", "value": 0.2, "unit": "%"}]}, {"compound": "CCCCCCCCCCCCCCCC(=O)OCC(O)COC(=O)CCCCCCCCCCCCCCC", "note": "[1,3-dipalmitoyl glycerol]", "values": [{"measurement": "Relative activity (%)", "setting": "purified esterase [1]; substrate 2 mM", "value": 0, "unit": "%"}]}, {"compound": "CCCCCCCCCCCCCCCC(=O)OCC(O)CO", "note": "(centres unmarked) [1-palmitoyl glycerol]", "values": [{"measurement": "Relative activity (%)", "setting": "purified esterase [1]; substrate 5 mM", "value": 3.0, "unit": "%"}]}, {"compound": "CC(=O)SCCNC(=O)CCNC(=O)[C@H](O)C(C)(C)COP(=O)(O)OP(=O)(O)OC[C@H]1O[C@@H](n2cnc3c(N)ncnc32)[C@H](O)[C@@H]1OP(=O)(O)O", "note": "[Acetyl CoA]", "values": [{"measurement": "Activity", "setting": "purified esterase [2]", "value": 0, "unit": "nmol/min"}, {"measurement": "Substrate specificity (esterase active or not)", "setting": "purified esterase [2]", "value": "not"}]}, {"compound": "CC(=O)O[C@H]1CC[C@@]2(C)C(=CC[C@H]3[C@@H]4CC[C@H]([C@H](C)CCCC(C)C)[C@@]4(C)CC[C@@H]32)C1", "note": "[Cholesterol acetate]", "values": [{"measurement": "Activity", "setting": "purified esterase [3]", "value": 0, "unit": "nmol/min"}]}, {"compound": "CCCCC/C=C\\C/C=C\\CCCCCCCC(=O)O[C@H]1CC[C@@]2(C)C(=CC[C@H]3[C@@H]4CC[C@H]([C@H](C)CCCC(C)C)[C@@]4(C)CC[C@@H]32)C1", "note": "[Cholesterol linolate]", "values": [{"measurement": "Activity", "setting": "purified esterase [3]", "value": 0, "unit": "nmol/min"}]}, {"compound": "CCCC(=O)OCC", "note": "[Ethyl butyrate]", "values": [{"measurement": "Relative activity (%)", "setting": "purified esterase [1]; substrate 20 mM", "value": 100.0, "unit": "%"}]}, {"compound": "CCCCCCCCCCCCCCCC(=O)OC(C)C", "note": "[Isopropyl palmitate]", "values": [{"measurement": "Relative activity (%)", "setting": "purified esterase [1]; substrate 20 mM", "value": 1.7, "unit": "%"}]}, {"compound": "O=S(=O)(F)Cc1ccccc1", "note": "[PMSF, phenylmethylsulfonylfluoride]", "values": [{"measurement": "Inactivation of the esterase", "setting": "purified esterase [4]", "value": "Completely inactivated"}, {"measurement": "Remaining activity(%)", "setting": "purified esterase [4]; 80 µM", "value": 1.5, "unit": "%"}]}, {"compound": "CCCCCCCCCCCCCCCC(=O)SCCNC(=O)CCNC(=O)[C@H](O)C(C)(C)COP(=O)(O)OP(=O)(O)OC[C@H]1O[C@@H](n2cnc3c(N)ncnc32)[C@H](O)[C@@H]1OP(=O)(O)O", "note": "[Palmitoyl CoA]", "values": [{"measurement": "Activity", "setting": "purified esterase [2]", "value": 5.4, "unit": "nmol/min"}, {"measurement": "Substrate specificity (esterase active or not)", "setting": "purified esterase [2]", "value": "Active"}]}, {"compound": "C[C@H](CCC(=O)O)[C@H]1CC[C@H]2[C@@H]3CC[C@@H]4C[C@H](O)CC[C@]4(C)[C@H]3C[C@H](O)[C@]12C", "note": "[Sodium deoxycholate]", "values": [{"measurement": "Remaining activity(%)", "setting": "purified esterase [4]", "value": 76.2, "unit": "%"}, {"measurement": "Decrease of activity", "setting": "purified esterase [4]; purified esterase, pH 9, 10 min, 1000 µM", "value": "about 25%"}]}, {"compound": "CCCCCCCCCCCCOS(=O)(=O)[O-].[Na+]", "note": "[Sodium lauryl sulfate]", "values": [{"measurement": "Inactivation of the esterase from Pseudomonas aeruginosa", "setting": "[5]", "value": "not inactivated"}, {"measurement": "Remaining activity(%)", "setting": "purified esterase [4]", "value": 32.2, "unit": "%"}, {"measurement": "Decrease of activity (inactivation)", "setting": "purified esterase [4]; purified esterase, pH 9, 10 min, 5000 µM", "value": "about 70%"}]}, {"compound": "CC(=O)OCC(COC(C)=O)OC(C)=O", "note": "[Triacetin]", "values": [{"measurement": "Relative activity (%)", "setting": "purified esterase [1]; substrate 20 mM", "value": 14.1, "unit": "%"}]}, {"compound": "CCCC(=O)OCC(COC(=O)CCC)OC(=O)CCC", "note": "[Tributylin]", "values": [{"measurement": "Relative activity (%)", "setting": "purified esterase [1]; substrate 20 mM", "value": 56.6, "unit": "%"}]}, {"compound": "CCCCCCCCCCCCCCCC(=O)OCC(COC(=O)CCCCCCCCCCCCCCC)OC(=O)CCCCCCCCCCCCCCC", "note": "[Tripalmitin]", "values": [{"measurement": "Relative activity (%)", "setting": "purified esterase [1]; substrate 6 mM", "value": 1.1, "unit": "%"}]}, {"compound": "Tritonx-100", "values": [{"measurement": "Remaining activity(%)", "setting": "purified esterase [4]", "value": 101.5, "unit": "%"}]}, {"compound": "Tween-80", "values": [{"measurement": "Remaining activity(%)", "setting": "purified esterase [4]", "value": 130.8, "unit": "%"}]}]}
